Data: patent US11116757B2 (priority 2015, dated 2021)

Molecular target: DCN1-UBC12 interaction (Homo sapiens (Human), UniProt Q96GG9)
Experiment: biochemical
Format: binding
Settings: read-out: TR-FRET IC50

Chain of DCN1-UBC12 interaction (Q96GG9 60-248 limits assumed): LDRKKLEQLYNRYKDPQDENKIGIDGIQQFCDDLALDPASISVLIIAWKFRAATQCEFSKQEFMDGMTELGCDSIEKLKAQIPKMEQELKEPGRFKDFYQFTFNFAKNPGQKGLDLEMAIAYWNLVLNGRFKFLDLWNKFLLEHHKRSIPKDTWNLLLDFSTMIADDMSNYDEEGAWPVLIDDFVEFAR

Row | SMILES | IC50 [µM]
1 | CCCN1CCC(N(CCOC)C(=O)Nc2cccc(C(F)(F)F)c2)CC1 [A248, 1-(2-Methoxyethyl)-1-(1-Propylpiperidin-4-yl)-3-(3-(Trifluoromethyl)Phenyl)Urea] | > 58.9
2 | O=C(Nc1cccc(C(F)(F)F)c1)N[C@H]1CCN(Cc2ccccc2)C[C@@H]1OC(=O)Nc1cccc(C(F)(F)F)c1 [A249] | > 59.6
3 | CCCC(C)N1CCC(N(Cc2ccccc2)C(=O)Nc2cccc(OC)c2OC)CC1 (stereo not shown) [A250] | > 59.8
4 | CCCC(C)N1CCC(N(CCNC(=O)CCl)C(=O)Nc2cccc(C(F)(F)F)c2)CC1 (stereo not shown) [A251] | > 59.9
5 | C#CCCCN1CCC(N(Cc2ccccc2NC(=O)CCl)C(=O)Nc2ccc(Cl)c(Cl)c2)CC1 [A252] | > 6.46
6 | C#CCCCN1CCC(N(Cc2ccccc2NC(=O)CCl)C(=O)Nc2cccc(C(F)(F)F)c2)CC1 [A253] | > 6.89
7 | CCCCN1CCC(CC(=O)OC)(NC(=O)Nc2cccc(C(F)(F)F)c2)CC1 [A254] | > 60.1
8 | CCCC(C)N1CCC(N(Cc2ccccc2)C(=O)Nc2cc(C)oc2C(F)(F)F)CC1 (stereo not shown) [A255] | > 60.2
9 | CCCC(C)N1CCC(N(Cc2cccc(CNC(=O)CCl)c2)C(=O)Nc2cccc(C(F)(F)F)c2)CC1 (stereo not shown) [A256] | > 60.4
10 | CCCC(C)N1CCC(N(Cc2ccccc2)C(=O)Nc2ccccc2C(N)=O)CC1 (stereo not shown) [A257] | > 61.8
11 | CCCC(C)N1CCC(N(Cc2ccccc2)C(=O)Nc2ccc(C(N)=O)cc2)CC1 (stereo not shown) [A258] | > 62.2
12 | CCCC(C)N1CCC(N(Cc2ccccc2)C(=O)Nc2c(C)cccc2C)CC1 (stereo not shown) [A259] | > 62.4
13 | CCCC(C)N1CCC(N(Cc2ccccc2)C(=O)Nc2cc(Cl)c(O)c(Cl)c2)CC1 (stereo not shown) [A260] | > 62.5
14 | O=C(Nc1cccc(C(F)(F)F)c1)N(Cc1ccccc1)C1CCNCC1 [A261, 1-Benzyl-1-(Piperidin-4-yl)-3-(3-(Trifluoromethyl)Phenyl)Urea] | > 63.3
15 | CCCCN1CCC(N(Cc2ccccc2)C(=O)Nc2cncc(C(F)(F)F)c2)CC1 [A262] | > 63.4
16 | Cn1nccc1-c1cccc(NC(=O)NC2CCN(Cc3ccccc3)CC2)c1 [A263, 1-(1-Benzylpiperidin-4-yl)-3-(3-(1-Methyl-1H-Pyrazol-5-yl)Phenyl)Urea] | > 64.6
17 | CCCC(C)N1CCC(N(Cc2ccccc2)C(=O)Nc2c(C)cc(Br)cc2C)CC1 (stereo not shown) [A265] | > 65.7
18 | CCCC(C)N1CCC(N(Cc2ccccc2)C(=O)Nc2ccc(Cl)cc2C(=O)OC)CC1 (stereo not shown) [A266] | > 66.2
19 | CCCC(C)N1CCC(N(Cc2ccccc2)C(=O)Nc2cc(Br)ccc2Cl)CC1 (stereo not shown) [A267] | > 66.9
20 | CCCC(C)N1CCC(N(Cc2ccccc2)C(=O)Nc2ccc(F)c(-c3nc4ccccc4o3)c2)CC1 (stereo not shown) [A268] | > 67.1
21 | CCCC(C)N1CCC(N(Cc2ccccc2)C(=O)Nc2ccc(F)cc2)CC1 (stereo not shown) [A269] | > 67.2
22 | CCCC(C)N1CCC(N(Cc2ccccc2)C(=O)Nc2ccccc2CC)CC1 (stereo not shown) [A270] | > 67.3

Row | SMILES | IC50 [µM]
23 | CCCC(C)N1CCC(N(Cc2ccccc2)C(=O)Nc2cccc(C)c2C)CC1 (stereo not shown) [A271] | > 67.5
24 | CCCC(C)N1CCC(N(Cc2ccccc2)C(=O)Nc2c(F)cc(F)cc2F)CC1 (stereo not shown) [A272] | > 67.5
25 | CCCC(C)N1CCC(N(Cc2ccccc2)C(=O)Nc2cc(OC)cc(OC)c2)CC1 (stereo not shown) [A273] | > 68
26 | CCCCN1CCC(N(Cc2ccccc2)C(=O)Nc2cc(C(F)(F)F)cc(C(F)(F)F)c2)CC1 [A274] | > 68.2
27 | CCCC(C)N1CCC(N(Cc2ccccc2)C(=O)Nc2ccc(OC)cc2C)CC1 (stereo not shown) [A275] | > 68.6
28 | O=C(Nc1cccc(CN2CCOCC2)c1)NC1CCN(Cc2ccccc2)CC1 [A276, 1-(1-Benzylpiperidin-4-yl)-3-(3-(Morpholinomethyl)Phenyl)Urea] | > 68.7
29 | CCCC(C)N1CCC(N(Cc2ccccc2)C(=O)Nc2ccc(Cl)nc2)CC1 (stereo not shown) [A277] | > 68.8
30 | CCCC(C)N1CCC(N(Cc2ccccc2)C(=O)Nc2ccc(-c3ccc(C(=O)OC)cc3)cc2)CC1 (stereo not shown) [A278] | > 69.1
31 | CC(C1CCCC1)N1CCC(N(Cc2ccccc2)C(=O)Nc2cc(F)cc(C(F)(F)F)c2)CC1 (stereo not shown) [A279] | > 7.78
32 | CCCCN1CCC(N(Cc2ccccc2)C(=O)Nc2cccnc2)CC1 [A280] | > 70.1
33 | CCCC(C)N1CCC(N(Cc2ccccc2)C(=O)Nc2cc(F)ccc2F)CC1 (stereo not shown) [A281] | > 70.6
34 | O=C(Nc1cccc(-n2cccc2)c1)NC1CCN(Cc2ccccc2)CC1 [A282, 1-(3-(1H-Pyrrol-1-yl)Phenyl)-3-(1-Benzylpiperidin-4-yl)Urea] | > 71.3
35 | CCCC(C)N1CCC(N(Cc2ccccc2)C(=O)Nc2ccc(S(=O)(=O)NC(C)=O)cc2)CC1 (stereo not shown) [A283] | > 72.1
36 | CCCCN1CCC(N(Cc2ccccc2)C(=O)Nc2cnn(C)c2)CC1 [A284] | > 72.3
37 | CCCC(C)N1CCC(N(Cc2ccccc2)C(=O)Nc2ccccc2I)CC1 (stereo not shown) [A285] | > 72.4
38 | CCCC(C)N1CCC(N(Cc2ccccc2)C(=O)Nc2ccc(F)c(F)c2F)CC1 (stereo not shown) [A286] | > 72.4
39 | CCCCN1CCC(N(Cc2ccccc2)C(=O)Nc2ccc(OC)c(Cl)c2)CC1 [A287] | > 72.5
40 | CCCC(C)N1CCC(N(Cc2ccccc2)C(=O)Nc2cc(OC)ccc2Cl)CC1 (stereo not shown) [A288] | > 72.9
41 | CCCC(C)N1CCC(N(Cc2ccccc2)C(=O)Nc2ccc(OC)cc2F)CC1 (stereo not shown) [A290] | > 74
42 | CCCC(C)N1CCC(N(Cc2ccccc2)C(=O)Nc2ccc(NC(C)=O)cc2)CC1 (stereo not shown) [A291] | > 77.1
43 | O=C(Nc1cccc(C(F)(F)F)c1)NC1CCN(Cc2ccccc2Cl)CC1 [A292, 1-(1-(2-Chlorobenzyl)Piperidin-4-yl)-3-(3-(Trifluoromethyl)Phenyl)Urea] | > 77.3
44 | CCCC(C)N1CCC(N(Cc2ccccc2)C(=O)Nc2ccccc2F)CC1 (stereo not shown) [A295] | > 81.1

Row | SMILES | IC50 [µM]
45 | CCCC(C)N1CCC(N(Cc2ccccc2)C(=O)Nc2ccc(S(=O)(=O)Nc3ccc(OC)nn3)cc2)CC1 (stereo not shown) [A296] | > 83.4
46 | CCCC(C)N1CCC(N(Cc2ccccc2)C(=O)Nc2cccc(N3CCOCC3)c2)CC1 (stereo not shown) [A297] | > 83.6
47 | CCCC(C)N1CCC(N(Cc2ccccc2)C(=O)Nc2c(OC)cccc2OC)CC1 (stereo not shown) [A299] | > 85.7
48 | CCCC(C)N1CCC(N(Cc2ccccc2)C(=O)Nc2ccc(O)c(Cl)c2)CC1 (stereo not shown) [A300] | > 85.8
49 | CCCC(C)N1CCC(N(Cc2ccccc2)C(=O)Nc2nc3c(OC)cccc3s2)CC1 (stereo not shown) [A301] | > 86.1
50 | CCCC(C)N1CCC(N(Cc2ccccc2)C(=O)Nc2ccc(F)cc2Br)CC1 (stereo not shown) [A302] | > 86.9
51 | CCCC(C)N1CCC(N(Cc2ccccc2)C(=O)Nc2ccccc2Sc2ccccc2)CC1 (stereo not shown) [A303] | > 89.9
52 | C#CCCCN1CCC(N(Cc2ccccc2NC(=O)C=C)C(=O)Nc2ccc(Cl)c(Cl)c2)CC1 [A304] | > 9.74
53 | O=C(NC1CCN(Cc2ccc(F)cc2)CC1)C(F)(F)F [A305] | > 92.7
54 | O=C(Nc1cccc(C(F)(F)F)c1)NC1CCN(C(=O)c2ccccc2)CC1 [A306, 1-(1-Benzoylpiperidin-4-yl)-3-(3-(Trifluoromethyl)Phenyl)Urea] | > 98.1
55 | O=C(NC1CCN(Cc2cccc(F)c2)CC1)C(F)(F)F [A307] | > 98.1
56 | CCCC(C)N1CCC(N(Cc2ccccc2)C(=O)Nc2ccc(O)cc2)CC1 (stereo not shown) [A308] | > 98.6
57 | Cc1ccc(CN(C(=O)Nc2cccc(C(F)(F)F)c2)C2CCN(Cc3ccccc3)CC2)o1 [B1] | 2.73
58 | CCN1CCC(N(Cc2ccco2)C(=O)Nc2ccc(Br)c(C)c2)CC1 [B2] | 3
59 | CCN1CCC(N(Cc2ccco2)C(=O)Nc2cccc(C(F)(F)F)c2)CC1 [B3] | 3.85
60 | CCN1CCC(N(Cc2ccc3c(c2)OCO3)C(=O)Nc2cccc(Br)c2)CC1 [B4] | 4.06
61 | Cc1cccc(CN(C(=O)Nc2cccc(C(F)(F)F)c2)C2CCN(Cc3ccccc3)CC2)n1 [B5] | 5.64
62 | CCN1CCC(N(Cc2ccco2)C(=O)Nc2ccc(C)c(Cl)c2)CC1 [B6] | 6.85
63 | O=C(Nc1cccc(SC(F)(F)F)c1)NC1CCN(Cc2ccccc2)CC1 [B8] | 16.6
64 | CC1CN(Cc2ccccc2)CC(C)C1NC(=O)Nc1nccs1 (stereo not shown) [B9] | 18.6
65 | CC(=O)N1CCC(N(Cc2ccco2)C(=O)Nc2cccc(C(F)(F)F)c2)CC1 [B10] | 20.2
66 | CCN1CCC(N(Cc2ccco2)C(=O)Nc2ccc(C)c(F)c2)CC1 [B11] | 23.8

Row | SMILES | IC50 [µM]
67 | COc1cc(CN2CCC(NC(=O)Nc3cccc(C)c3)CC2)cc(OC)c1OC [B12] | 29.3
68 | COc1ccc(CN(C(=O)Nc2ccccc2Cl)C2CCN(C(C)=O)CC2)cc1 [B13] | 37.5
69 | CCCN1CCC(NC(=O)Nc2ccc(Cl)cc2Cl)CC1 [B14] | 43
70 | CCN1CCC(NC(=O)Nc2cccc(C(F)(F)F)c2)CC1 [B15] | 49.7
71 | O=C(Nc1ccc(F)c(Cl)c1)N(Cc1ccc2c(c1)OCO2)C1CCN(Cc2ccccc2)CC1 [B16] | 50.7
72 | CN1CC(NC(=O)NC2CCN(Cc3ccccc3)CC2)c2ccccc2C1=O (stereo not shown) [B17] | 55.6
73 | CC(=O)N1CCC(N(Cc2ccco2)C(=O)Nc2ccc(Br)c(C)c2)CC1 [B18] | 64.1
74 | Cc1ccc2[nH]c(C3CCN(Cc4cccc(C(F)(F)F)c4)CC3)nc2c1 [B19] | < 0.004
75 | O=C(Nc1ccccc1)NC1CCN(Cc2ccccc2)CC1 [B20, 1-(1-Benzylpiperidin-4-yl)-3-Phenylurea] | < 0.0041
76 | Cc1cccc(CC(=O)NC2CCN(Cc3ccccc3)CC2)c1 [B21] | < 0.0041
77 | O=C(Nc1ccc2c(c1)OCO2)NC1CCN(Cc2ccccc2)CC1 [B22] | > 103
78 | CC1CN(Cc2ccccc2)CCC1N(C)C(=O)Nc1cccc2cnccc12 (stereo not shown) [B23] | > 113
79 | CC1CN(Cc2ccccc2)CCC1N(C)C(=O)Nc1cn[nH]c1 (stereo not shown) [B24] | > 15.2
80 | Cc1nc(NC(=O)NC2CCN(Cc3ccccc3)CC2)nn1C [B25] | > 16.3
81 | O=C(NC1CCN(Cc2ccccc2)CC1)NC1CCC2(CC1)OCCO2 [B26] | > 165
82 | CC1CN(Cc2ccccc2)CCC1N(C)C(=O)NC1C(=O)N(c2ccccc2)N(C)C1C (stereo not shown) [B27] | > 28.1
83 | FC(F)(F)c1cccc(CN2CCN(Cc3nc4ccccc4[nH]3)CC2)c1 [B28] | > 46.3
84 | O=C(Nc1ccc(CN2CCCCC2)cc1)Nc1cc(C(F)(F)F)ccc1Cl [B29] | > 50.3
85 | O=C(Nc1cccnc1Cl)NC1CCN(C(=O)c2ccccc2F)CC1 [B30] | > 53.3
86 | O=C(CN1CCN(c2cccc(Cl)c2)CC1)Nc1cccc(C(F)(F)F)c1 [B31] | > 54.3
87 | FC(F)(F)c1cccc(CNC2CCN(Cc3ccccc3)CC2)c1 [B32] | > 55.3
88 | O=C(Nc1ccn(Cc2ccccn2)n1)NC1CCN(Cc2ccccc2)CC1 [B33] | > 55.4
